# Earlier results as cited in patent US8450455B2, “cRGD peptide derivative and its manufacture, and implant having a coating containing a cRGD peptide derivative” (Biotronik AG, priority 2010, dated 2013).
# Tests used:
# integrin ανβ3 = integrin ανβ3 (Homo sapiens, UniProt P05106+P06756); conditions: integrin expressed by tumor cells
# [1] = 1-octanol/water, 25° C.
# integrin ανβ3, sequence (P06756 31-889 limits assumed): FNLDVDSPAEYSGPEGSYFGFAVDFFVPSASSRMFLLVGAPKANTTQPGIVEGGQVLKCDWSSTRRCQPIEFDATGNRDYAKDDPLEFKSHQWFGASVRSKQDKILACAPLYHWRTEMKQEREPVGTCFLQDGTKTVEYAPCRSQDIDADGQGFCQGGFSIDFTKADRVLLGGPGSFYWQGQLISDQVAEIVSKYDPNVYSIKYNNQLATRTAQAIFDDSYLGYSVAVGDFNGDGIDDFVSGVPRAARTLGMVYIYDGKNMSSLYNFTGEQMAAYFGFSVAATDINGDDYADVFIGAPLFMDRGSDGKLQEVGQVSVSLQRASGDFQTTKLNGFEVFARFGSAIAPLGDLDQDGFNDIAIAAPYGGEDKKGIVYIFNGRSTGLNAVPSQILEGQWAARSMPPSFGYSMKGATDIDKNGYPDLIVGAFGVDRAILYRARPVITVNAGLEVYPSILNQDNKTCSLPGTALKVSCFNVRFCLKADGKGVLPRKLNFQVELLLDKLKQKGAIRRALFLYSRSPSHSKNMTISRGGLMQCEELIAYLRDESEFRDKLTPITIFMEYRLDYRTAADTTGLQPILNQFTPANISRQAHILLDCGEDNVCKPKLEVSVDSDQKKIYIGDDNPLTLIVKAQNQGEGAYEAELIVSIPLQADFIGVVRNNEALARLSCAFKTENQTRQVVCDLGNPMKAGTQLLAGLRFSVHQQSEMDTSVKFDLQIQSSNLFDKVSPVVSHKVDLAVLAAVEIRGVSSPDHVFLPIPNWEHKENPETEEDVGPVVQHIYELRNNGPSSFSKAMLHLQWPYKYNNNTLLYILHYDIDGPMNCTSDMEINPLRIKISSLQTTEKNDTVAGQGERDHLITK
# integrin ανβ3, sequence (P06756 891-1048 partner limits assumed): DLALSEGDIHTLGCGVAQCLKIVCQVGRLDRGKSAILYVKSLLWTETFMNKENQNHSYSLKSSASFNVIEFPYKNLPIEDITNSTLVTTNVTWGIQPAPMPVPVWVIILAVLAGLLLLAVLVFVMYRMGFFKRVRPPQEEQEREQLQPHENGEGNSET
# integrin ανβ3, sequence (P05106 27-788): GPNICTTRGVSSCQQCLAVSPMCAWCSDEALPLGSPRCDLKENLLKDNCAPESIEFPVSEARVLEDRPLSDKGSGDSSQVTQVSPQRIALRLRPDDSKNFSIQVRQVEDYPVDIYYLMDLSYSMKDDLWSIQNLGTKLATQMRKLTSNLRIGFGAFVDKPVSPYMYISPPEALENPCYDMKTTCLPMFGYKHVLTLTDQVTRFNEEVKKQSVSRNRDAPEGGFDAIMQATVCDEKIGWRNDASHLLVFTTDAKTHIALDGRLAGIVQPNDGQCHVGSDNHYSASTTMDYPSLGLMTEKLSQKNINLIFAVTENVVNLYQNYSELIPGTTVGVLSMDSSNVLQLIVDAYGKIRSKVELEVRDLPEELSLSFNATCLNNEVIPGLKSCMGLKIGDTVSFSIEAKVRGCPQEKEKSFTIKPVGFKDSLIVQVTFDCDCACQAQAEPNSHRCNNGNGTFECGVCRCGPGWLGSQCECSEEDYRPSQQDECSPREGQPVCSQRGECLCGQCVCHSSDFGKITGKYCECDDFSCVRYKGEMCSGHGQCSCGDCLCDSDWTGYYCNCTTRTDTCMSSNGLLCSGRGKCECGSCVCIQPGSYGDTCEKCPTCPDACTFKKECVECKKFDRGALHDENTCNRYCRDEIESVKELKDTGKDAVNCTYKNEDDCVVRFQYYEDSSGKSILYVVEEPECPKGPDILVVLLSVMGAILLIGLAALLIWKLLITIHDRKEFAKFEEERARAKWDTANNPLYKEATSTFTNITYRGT
inhibition of integrin ανβ3 (integrin ανβ3),logP [1],Molecule
well-inhibited,,c(RGDfV)
,2.57,CCCCCCCN [1-aminoheptane]
